The values below are quoted from earlier work in publication PMC8463262 (Acta Pharmaceutica Sinica. B, 2020).

For orientation: IC50 means the midpoint of a concentration-inhibition curve.

Each structure is given as a SMILES string.

The subject of this data set is PRMT5. The following applies: read-out: IC50 PRMT5.

With `CCNC(=O)NCCSC[C@H]1O[C@@H](n2cnc3c(N)ncnc32)[C@H](O)[C@@H]1O` [DS437], the IC50 was 6 µM.
